# Values quoted from earlier work as cited in patent publication US20240300988A1, “CRYSTALLINE FORMS OF PENTAAZA MACROCYCLIC RING COMPLEX” (Galera Labs, LLC, priority 2023, published 2024).
# Tested on: VEGFr inhibitor-induced pulmonary disease
# Conditions: rat model; Tuder et al., Am. J. Respir. Cell Mol. Biol., 29, 88-97 (2003)
smiles,measurement,value
[Cl][Mn][Cl].c1cc2nc(c1)CN[C@H]1CCCC[C@@H]1NCCN[C@H]1CCCC[C@@H]1NC2 [GC4419],effect on VEGFr inhibitor-induced pulmonary disease,attenuate VEGFr inhibitor-induced pulmonary disease
